According to patent publication US20090181467A1, “Method of assessing and of activating the alternative cellular energy (ACE) pathway in the therapy of diseases” (MI Hope Inc. dba Progressive University, priority 2008, published 2009):

How the values were obtained:
[1] = tested on: alternative cellular energy (ACE) pathway; experiment: neutral red dye / UV-A light activation of the ACE pathway in patients; assay type: in vivo, human
Description: A series of patients have been seen who have a history of recurrent herpes simplex virus (HSV) skin lesions, or a past history of herpes zoster virus (HZV) infections, but with no actual skin lesions present at the time of examination. Another series of patients were recruited from among the patients attending a chiropractic clinic for various pain or impaired mobility related conditions. Under the direction of the inventor, both groups of patients were asked to volunteer for a study on assessing and, if necessary, activating the ACE pathway. Q-tips were used to sample various areas of their skin as well as the mucosal (buccal) surface of their mouths. Urine samples were also collected. The materials were checked for direct fluorescence using a 15W ultraviolet-A light emitting spiral fluorescent light (Halco, ProLume light). The swabs were then touched against other Q-tips that were soaked in an approximately 1 mg/ml solution of neutral red. Several drops of the neutral red solution were added to the urine. The Q-tips and urine were again examined under UV-A light for discernable fluorescence compared to Q-tips exposed only to neutral red. […] Clinic staff similarly tested and gave negative results.
Skin areas of the patients from which fluorescing material were obtained were then wiped with absorbent cloth. These cloth was placed over areas of skin from which the material was collected, stained with neutral red, and exposed to UV-A light from spiral fluorescent bulbs. Under UV illumination, fluorescence developed in areas of skin beneath and adjacent to the stained cloth. The fluorescence lasted for varying periods of time extending in one patient to 3 hours, but generally less than 1 hour. […] Similarly, in most patients there was no discernable fluorescing material when the patients were seen the next day. […] A person commented upon the relief they experienced from a chronically painful shoulder that had resulted from injuries received years earlier in a car accident. Another patient's personality transformed from expressions of anger and hostility to one of laughter and smiles.

[2] = tested on: active skin lesions caused by herpes simplex virus (HSV), herpes zoster virus (HZV) and human papillomavirus (HPV) infections; conditions: cited from earlier work

Cc1cc2nc3ccc(N(C)C)cc3nc2cc1N.Cl [neutral red]
sense of wellness ([1]; all patients, at the end of period of UV illumination): much improved sense of wellness | severity of the pain and restricted mobility symptoms ([1]; chiropractic patients, following day): marked reductions | persistence of benefits after a therapy session ([1]; no additional intervention): 2-3 weeks | vitality ([1]; patients with prior history of recurrent HSV infections, immediately after therapy session and next day): improved vitality | healing of active skin lesions [2]: successfully used in expediting the healing
